# Results published in PubChem BioAssay AID2305 (GlaxoSmithKline (GSK), 2010).
# Tested on: P. falciparum 3D7 growth, pLDH absorbance
# Test: P. falciparum 3D7 growth inhibition, dose response, strain 3D7 (AID 2305)
row,SMILES,IC50 [nM]
1,CC(C)C(=O)Nc1c(F)cc(F)cc1CCc1ccc(O)cc1,500
2,O=C(Nc1cccc(-c2cc3ccccc3[nH]2)c1)C1CCN(Cc2ccccc2O)CC1,940
3,O=C(Nc1cccc(F)c1)N1CCC(CN2CCOC(c3ccccc3)(c3ccccc3)C2)CC1,200
4,CC1CN(Cc2cccc(F)c2)CCN1c1ccc(NC(=O)c2cccs2)cc1 (stereo not drawn),450
5,Cc1ccc(CC(C)NCC(O)c2cccc(C#N)c2)cc1 (stereo not drawn),940
6,Cc1cc(C(=O)CN2C(=O)NC(C)(c3ccc4ccccc4c3)C2=O)c(C)n1Cc1ccco1 (stereo not drawn),660
7,O=C(Cc1ccc(NC(=O)c2ccc(O)c(-c3ccc(Cl)c(Cl)c3)c2)cc1)NCc1cccc(C(F)(F)F)c1,880
8,CN1CCN(CCCNCc2cccc(Nc3nccc(Nc4ccc(Oc5ccccc5)cc4)n3)c2)CC1,760
9,Cc1ccccc1N1CCN(c2ccc(C(=O)Nc3ccccc3)cn2)CC1,590
10,Cc1cc(C(=O)Nc2ccc3c(c2)CCN3C2CCN(Cc3ccc(F)cc3Cl)C2)no1 (stereo not drawn),190
11,O=C(Nc1cccc(Cl)c1)N(CCCn1ccnc1)Cc1csc(-c2ccc(CNCc3ccccc3)cc2)n1,540
12,COc1ccc(C)c(Nc2ccnc(Nc3ccc(-c4cnc[nH]4)cc3)n2)c1,1370
13,CCCCNC(=O)C(C)NC(=O)c1ccc(O)c(-c2ccc(Cl)c(Cl)c2)c1 (stereo not drawn),820
14,COc1ccc(-c2ccc(NC(=O)c3ccc(Cl)cc3)cc2)cc1CN1CCNCC1,130
15,O=C(/C=C/c1ccc(Cl)c(Cl)c1)NCCCCCN1CCC(C(=O)Nc2ccc3c(c2)OCO3)CC1,840
16,COc1cc([N+](=O)[O-])ccc1NC(=O)Nc1ccc(OC(F)(F)F)cc1,1030
17,Cc1cccc2[nH]c(-c3ccc(-c4ccc(NC(=O)C(=O)c5cccn5C)cc4)cc3)nc12,820
18,CN(C)CCCn1c(N)c(-c2nc3ccccc3[nH]2)c2nc(C#N)c(C#N)nc21,590
19,Oc1ccc(-c2ccccc2)cc1CN1CCCCC1,900
20,Clc1ccc(CCNCCCCCCNCCc2ccc3c(c2)OCO3)cc1,1730
21,Cc1[nH]c(C)c(-c2ccc(-c3ccc4c(c3)OCO4)nc2)c(=O)c1Br,190
22,Cc1cnc(CNCc2ccc(S(=O)(=O)Nc3ccc(Oc4cccc(Cl)c4)cc3)cc2)cn1,770
23,CN1CCN(S(=O)(=O)c2ccc3nccc(Nc4ccc(Oc5ccccc5)cc4)c3c2)CC1,820
24,CC(C)Nc1cc(C(=O)N[C@@H](Cc2ccccc2)[C@H](O)CNC(C)(C)c2cccc(C(F)(F)F)c2)cc(N2CCCCS2(=O)=O)c1,80
25,O=C(c1ccccc1)[C@H]1C[C@@H]1CN1CC=C(c2c[nH]c3ccccc23)CC1,530

row,SMILES,IC50 [nM]
1,Fc1ccc(Nc2ccnc3cc(I)ccc23)c(Cl)c1,1080
2,N=C(N)c1cccc(OCCCOc2cccc(NC(=O)Nc3ccc([N+](=O)[O-])cc3)c2)c1,860
3,O=C(Nc1ccccc1)N(Cc1cccc(-c2cccc(CNCCc3ccccc3)c2)c1)C1CCN(Cc2ccccc2)CC1,310
4,NC(=O)C1Cc2ccccc2CN1CC(=O)Nc1ccccc1Sc1ccccc1 (stereo not drawn),70
5,COc1cccc(CCN(Cc2ccccc2-c2ccc(CNC3CC(C)(C)NC(C)(C)C3)cc2)C(=O)NC2CCCCC2)c1,930
6,CCOC(=O)c1cc(C(=O)NCCCCN2CCC(c3ccc4c(c3OC)CCCC4)CC2)ccc1-c1ccc(C(F)(F)F)cc1,710
7,O=C(Nc1ccc(OC2CCN(Cc3ccc(F)cc3)C2)c(Cl)c1)c1ccc(F)cc1 (stereo not drawn),490
8,COc1cc(Cc2cnc(N)nc2N)cc(OCCn2ccccc2=O)c1OC,770
9,CCN(CCNS(C)(=O)=O)c1ccc(N)c(C)c1,880
10,COc1ccc(CNCc2ccc(-c3ccc(-c4nc5ccc(C(F)(F)F)cc5[nH]4)cc3)cc2)cc1,130
11,COc1cc(C(=O)Nc2cccc(-c3nc4ccccc4[nH]3)c2)cc(OC)c1OC,720
12,COc1ccc2nccc([C@@H](O)CN3CCC(NCc4ccc5c(c4)NC(=O)C(C)S5)CC3)c2c1 (stereo partly drawn),200
13,Cc1ccc(CC(C)(C)NCC(O)c2cccc(C(F)(F)F)c2)cc1 (stereo not drawn),840
14,COc1ccc2ccccc2c1CNCC1CCN(CC2CCCCC2)CC1,760
15,COc1ccc2c(NN=Cc3ccncc3)cc(C)nc2c1,810
16,O=C(/C=C/c1ccc(Cl)c(Cl)c1)NCCCCCCN1CCCN(C(=O)Nc2ccc(C(F)(F)F)cc2)CC1,580
17,NC(=O)c1ccccc1OCC(=O)Nc1ccc(-c2cccc(-c3nc4ccc(C(F)(F)F)cc4[nH]3)c2)cc1,980
18,Nc1nc(N)c2c(Cc3ccc(Br)cc3)cccc2n1,770
19,Nc1c2c(nc3ccc(NC(=O)c4ccc([N+](=O)[O-])cc4)cc13)CCCC2,240
20,c1ccc2[nH]c(-c3ccc(-c4ccc(CN5CCN(c6ccncc6)CC5)cc4)cc3)nc2c1,160
21,COCCn1c(Sc2ncnc3sccc23)nc2ccccc21,880
22,CCCCCCCN1CCC(CC(=O)Nc2ccnc3ccc(OC)cc23)CC1,720
23,CC[C@H](C)CNC(=O)c1ccnc(-c2cccc(CN(C)C3CCN(C)CC3)c2)c1,900
24,NC(=NCCCc1ccccc1)c1cccc(C(N)=NCCCc2ccccc2)n1,1380
25,O=C(Cn1c(CCc2cccc(F)c2F)nc(=O)c2cccnc21)N(Cc1ccc(-c2ccc(C(F)(F)F)cc2)cc1)C1CCN(C2CCOCC2)CC1,830

row,SMILES,IC50 [nM]
1,C=C1N(C)c2cc([N+](=O)[O-])c(N)cc2C1(C)C,490
2,COc1cccc(C2CCCN(CCCCNC(=O)c3ccc(NC(=O)c4ccc(Cl)cc4)cc3)C2)c1 (stereo not drawn),860
3,NC1(C(=O)O)Cc2ccc(Cl)cc2C1 (stereo not drawn),730
4,COc1ccc(NC(=O)C2CCN(CCCCCNC(=O)/C=C/c3ccc(Cl)c(Cl)c3)CC2)cc1,830
5,COc1ccc(CNC(=O)c2cnc3cc(-c4c(C)noc4C)ccc3c2Nc2ccccc2C(C)(C)C)cc1,1300
6,Cc1[nH]c2cc(Cl)ccc2c1C1=CCN(CCCCC2(C)C(=O)Nc3c(F)cccc32)CC1 (stereo not drawn),840
7,CC(=O)C1(c2ccccc2)CCN(CCC2(c3ccc(Cl)c(Cl)c3)CN(C(=O)Nc3cccc(C(F)(F)F)c3)CCO2)CC1 (stereo not drawn),1050
8,CC(C)NCc1cccc(-c2cccc(-c3nc4ccccc4[nH]3)c2)c1,800
9,O=[N+]([O-])c1cccc(CNCC2CCN(Cc3ccc(C(F)(F)F)cc3)CC2)c1,250
10,O=C(C=Cc1cccs1)Nc1ccc(-c2nc3ccccc3[nH]2)cc1,1140
11,Cc1cc(Nc2ccc(O)cc2)nc2cc(O)ccc12,760
12,COc1ccc(CNC2CCN(C)CC2)cc1-c1ccc(S(=O)(=O)NCC2CCCO2)s1 (stereo not drawn),800
13,Cc1cc(N[C@@H](Cc2ccccc2)C(=O)Nc2ccccc2)nc(NCCc2ccccn2)n1,870
14,Cc1ccc2c(c1C)NC(=O)C21NN=C(c2ccccc2)S1 (stereo not drawn),750
15,c1ccc(-c2ccc(-c3nc4ccccc4[nH]3)cc2)cc1,810
16,Cc1cccc2[nH]c(-c3ccc(-c4cccc(NC(=O)c5cncn5C)c4)s3)nc12,640
17,N#Cc1cccc(-c2cnc(N)c(-c3nc4ccc(S(N)(=O)=O)cc4[nH]3)c2)c1,640
18,COc1ccc(CN(C2CC2)C(C)C(=O)c2[nH]c(C)c(C(C)=O)c2C)cc1 (stereo not drawn),1590
19,CCCNCc1ccc(-c2ccc(CN(CCOC)C(=O)c3cnc(C)cn3)cc2)nc1,1250
20,COc1cc(-n2cnc3cc(-c4ccc([N+](=O)[O-])cc4)sc3c2=O)ccc1OCCN1CCCC1,780
21,CN1CCN(c2ccnc3ccc(NC(=O)Nc4cccc(C#N)c4)cc23)CC1,800
22,OCC1CCN(Cc2ccc(-c3ccc(-c4nc5ccc(C(F)(F)F)cc5[nH]4)s3)cc2)CC1,480
23,Cc1[nH]nc2ccc(-c3cc(OC[C@@H](N)Cc4ccccc4)cnc3-c3ccccc3OCc3cccc(F)c3)cc12,1220
24,CCCCCCn1c(Sc2ccc(C#N)c([N+](=O)[O-])c2)nnc1-c1cccs1,710
25,CCn1ccc2c(N3CCCS3(=O)=O)cc(C(=O)N[C@@H](Cc3ccccc3)[C@H](O)CNC(C)(C)CCCC(C)C)cc21,490

row,SMILES,IC50 [nM]
1,O=C(Cc1ccc(NC(=O)c2ccc(O)c(-c3ccc(Cl)c(Cl)c3)c2)cc1)NCCN1CCCCC1,840
2,COc1ccc(NC(=O)[C@H](Cc2ccccc2)Nc2cc(C)nc(NCCc3ccccc3OC)n2)cc1,530
3,CCOC(=O)N1CCN(CCCCCNc2cc(C)nc(/N=C(\N)Nc3ccc(Cl)cc3)n2)CC1,150
4,CCNc1c2ccc(Cl)cc2nc2ccc(OC)cc12,840
5,COc1cc(NC(=O)C(c2ccc(Cl)cc2)C(C)C)cc(OC)c1OC (stereo not drawn),530
6,CC(=O)C1(c2ccccc2)CCN(CCC2(c3ccc(Cl)c(Cl)c3)CN(C(=O)Nc3cc(F)cc(F)c3)CCO2)CC1 (stereo not drawn),1480
7,COc1ccc2c(c1)CCCC2NCCCCNC(=O)c1ccc(NC(=O)c2ccc(Cl)cc2)cc1 (stereo not drawn),380
8,CCn1ccc2c(N3CCCCS3(=O)=O)cc(C(=O)N[C@@H](Cc3ccccc3)[C@H](O)CNC(C)(C)c3cccc(C(F)(F)F)c3)cc21,130
9,CCCCN(CCCC)CCNC(=O)c1cccc(NC(=O)N2CCc3cc(SC)c(C(F)(F)F)cc32)c1,810
10,COc1ccccc1CNc1ncc(-c2ccsc2)c(-c2nccs2)n1,330
11,CN(C)c1ccc(-c2csc(C(=O)NC3CCCCN(Cc4ccc(C(C)(C)C)cc4)C3)c2)cc1 (stereo not drawn),1110
12,O=S(=O)(c1cccc(F)c1)c1ccc(Nc2ncnc3cc(Br)sc23)cc1Cl,1030
13,CCC(CC)(CCC#N)CN(C[C@@H](O)[C@H](Cc1ccccc1)NC(=O)OC(C)(C)C)S(=O)(=O)c1ccc(OC)cc1,1040
14,Clc1ccc(OCCC2CCN(CCCCCCCN3CCC(CCOc4ccc(Cl)c(Cl)c4)CC3)CC2)cc1Cl,620
15,Cc1ccc(NCc2cccc(F)c2)cc1S(=O)(=O)N[C@@H]1CCN(C#N)C1,790
16,c1ccc(CN2CCC(NCc3ccccc3-c3ccc(CNC4CCCC4)cc3)CC2)cc1,910
17,Cc1ccc(S(=O)(=O)NC2CCN(CCNC(=O)Nc3cc(C)nc4ccccc34)C2)cc1 (stereo not drawn),1040
18,Cc1cccc2[nH]c(-c3cccc(-c4cccc(NC(=O)c5ccncc5)c4)c3)nc12,240
19,COc1cc(C=Cc2ccc3ccccc3n2)cc(Br)c1OCC(=O)N(C)C,1100
20,CCCC(=O)c1cnc2c(I)cccc2c1Nc1ccccc1C,1160
21,Cc1cc(N[C@@H](Cc2ccccc2)C(=O)NC2CCCC2)nc(NCCOc2ccccc2)n1,1110
22,CCCCc1ccc(-c2ccc3[nH]c(C)c(Br)c(=O)c3c2)cc1,110
23,N#Cc1ccc(-c2ccc(OCC(O)CN3CCCN(Cc4cccc(O)c4Cl)CC3)cc2)cc1 (stereo not drawn),690
